Measured values as given in US6914045B2, “Glycopeptide antibiotics” (Wyeth Holdings Corporation, priority 2001, dated 2005).
Values after ≈ are worked out from the molar mass of the structure shown.

Legend:
Assay in all cases: in vitro antibacterial evaluation, MIC by broth dilution
Assay type in all cases: cell-based
[1] = test system: Staphylococcus sp.; settings: broth dilution, 18 hours at 35° C.; for MIC Staphylococcus aureus (GC 1131): strain GC 1131
Method in brief: (§1)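 Broth dilution per NCCLS M7-A2 in Mueller-Hinton II medium, inoculum 5×10^5 CFU/mL, antibiotic range 64-0.06 μg/mL. MIC taken as lowest concentration inhibiting growth; Gram-positive panel includes recent clinical isolates resistant to methicillin, penicillin and/or vancomycin.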

[2] = test system: Enterococcus sp.; settings: broth dilution, 18 hours at 35° C.; for MIC Enterococcus faecalis (ATCC 29212): strain ATCC 29212; for MIC Enterococcus faecalis (GC 2242): strain GC 2242; for MIC Enterococcus faecium (GC 2243): strain GC 2243; for MIC Enterococcus faecalis (GC 2691): strain GC 2691; for MIC Enterococcus faecalis (GC 3059): strain GC 3059; for MIC Enterococcus faecalis (GC 4552): strain GC 4552; for MIC Enterococcus faecalis (GC 4553): strain GC 4553; for MIC Enterococcus faecalis (GC 4554): strain GC 4554; for MIC Enterococcus faecium (GC 4556): strain GC 4556; for MIC Enterococcus faecium (GC 4557): strain GC 4557; for MIC Enterococcus avium (GC 4558): strain GC 4558; for MIC Enterococcus faecalis (GC 6189): strain GC 6189
Method in brief: as §1

[3] = test system: Escherichia coli
Method in brief: as §1

[4] = test system: Streptococcus sp.; settings: broth dilution, 18 hours at 35° C.; for MIC Streptococcus pneumoniae (ATCC 6301): strain ATCC 6301; for MIC Streptococcus pneumoniae (GC 1894): strain GC 1894; for MIC Streptococcus pyogenes (GC 4563): strain GC 4563; for MIC Streptococcus agalactiae (GC 4564): strain GC 4564; for MIC Streptococcus pneumoniae (GC 4565): strain GC 4565
Method in brief: as §1

CC(c1ccccc1)C1NC(=O)CNC(=O)C(CO)NC(=O)C(C(O)C2CNC(=N)N2C2OC(CO)C(O)C(O)C2O)NC(=O)C(C(O)C2CNC(=N)N2)NC(=O)C(Cc2ccc(OC3OC(CO)C(OC4OC5COC(c6ccc(C=Cc7ccccc7)cc6)OC5C(O)C4O)C(O)C3O)cc2)NC1=O (centres unmarked) [Example 172]
MIC Staphylococcus aureus (GC 1131) ([1]; inoculum 5×10^5 CFU/mL): 8 µg/mL (≈ 5.39 µM) | MIC Staphylococcus aureus (ATCC 29213) ([1]; strain ATCC 29213): 4 µg/mL (≈ 2.69 µM) | MIC Staphylococcus aureus (GC 1131) [1]: 8 µg/mL (≈ 5.39 µM) | MIC Staphylococcus aureus (GC 3051) ([1]; strain GC 3051): 4 µg/mL (≈ 2.69 µM) | MIC Staphylococcus aureus (GC 3053) ([1]; strain GC 3053): 4 µg/mL (≈ 2.69 µM) | MIC Staphylococcus aureus (GC 4541) ([1]; strain GC 4541): 4 µg/mL (≈ 2.69 µM) | MIC Staphylococcus aureus (GC 4542) ([1]; strain GC 4542): 2 µg/mL (≈ 1.35 µM) | MIC Staphylococcus aureus-SMITH (GC 4543) ([1]; strain GC 4543): 8 µg/mL (≈ 5.39 µM) | MIC Staphylococcus aureus (GC 4544) ([1]; strain GC 4544): 8 µg/mL (≈ 5.39 µM) | MIC Staphylococcus aureus (GC 4545) ([1]; strain GC 4545): 4 µg/mL (≈ 2.69 µM) | MIC Staphylococcus haemolyticus (GC 4546) ([1]; strain GC 4546): 8 µg/mL (≈ 5.39 µM) | MIC Coagulase Negative Staphylococcus (GC 4547) ([1]; strain GC 4547): 8 µg/mL (≈ 5.39 µM) | MIC Coagulase Negative Staphylococcus (GC 4548) ([1]; strain GC 4548): 2 µg/mL (≈ 1.35 µM) | MIC Coagulase Negative Staphylococcus (GC 4549) ([1]; strain GC 4549): 2 µg/mL (≈ 1.35 µM) | MIC Coagulase Negative Staphylococcus (GC 4551) ([1]; strain GC 4551): 4 µg/mL (≈ 2.69 µM) | MIC Coagulase Negative Staphylococcus (GC 6257) ([1]; strain GC 6257): 2 µg/mL (≈ 1.35 µM) | MIC Enterococcus faecalis (ATCC 29212) ([2]; inoculum 5×10^5 CFU/mL): 8 µg/mL (≈ 5.39 µM) | MIC Enterococcus faecalis (GC 2242) ([2]; inoculum 5×10^5 CFU/mL): 4 µg/mL (≈ 2.69 µM) | MIC Enterococcus faecium (GC 2243) ([2]; inoculum 5×10^5 CFU/mL): 8 µg/mL (≈ 5.39 µM) | MIC Enterococcus faecalis (GC 2691) ([2]; inoculum 5×10^5 CFU/mL): 4 µg/mL (≈ 2.69 µM) | MIC Enterococcus faecalis (GC 3059) ([2]; inoculum 5×10^5 CFU/mL): 8 µg/mL (≈ 5.39 µM) | MIC Enterococcus faecalis (GC 4552) ([2]; inoculum 5×10^5 CFU/mL): 8 µg/mL (≈ 5.39 µM) | MIC Enterococcus faecalis (GC 4553) ([2]; inoculum 5×10^5 CFU/mL): 4 µg/mL (≈ 2.69 µM) | MIC Enterococcus faecalis (GC 4554) ([2]; inoculum 5×10^5 CFU/mL): 4 µg/mL (≈ 2.69 µM) | MIC Enterococcus faecium (GC 4556) ([2]; inoculum 5×10^5 CFU/mL): 8 µg/mL (≈ 5.39 µM) | MIC Enterococcus faecium (GC 4557) ([2]; inoculum 5×10^5 CFU/mL): 8 µg/mL (≈ 5.39 µM) | MIC Enterococcus avium (GC 4558) ([2]; inoculum 5×10^5 CFU/mL): 4 µg/mL (≈ 2.69 µM) | MIC Enterococcus faecalis (GC 6189) ([2]; inoculum 5×10^5 CFU/mL): 2 µg/mL (≈ 1.35 µM) | MIC Enterococcus faecalis (ATCC 29212) [2]: 8 µg/mL (≈ 5.39 µM) | MIC Enterococcus faecalis (GC 2242) [2]: 4 µg/mL (≈ 2.69 µM) | MIC Enterococcus faecium (GC 2243) [2]: 8 µg/mL (≈ 5.39 µM) | MIC Enterococcus faecalis (GC 2691) [2]: 4 µg/mL (≈ 2.69 µM) | MIC Enterococcus faecalis (GC 3059) [2]: 8 µg/mL (≈ 5.39 µM) | MIC Enterococcus faecalis (GC 4552) [2]: 8 µg/mL (≈ 5.39 µM) | MIC Enterococcus faecalis (GC 4553) [2]: 4 µg/mL (≈ 2.69 µM) | MIC Enterococcus faecalis (GC 4554) [2]: 4 µg/mL (≈ 2.69 µM) | MIC Enterococcus faecium (GC 4556) [2]: 8 µg/mL (≈ 5.39 µM) | MIC Enterococcus faecium (GC 4557) [2]: 8 µg/mL (≈ 5.39 µM) | MIC Enterococcus avium (GC 4558) [2]: 4 µg/mL (≈ 2.69 µM) | MIC Enterococcus faecalis (GC 6189) [2]: 2 µg/mL (≈ 1.35 µM) | MIC Escherichia coli (ATCC 25922) ([3]; strain ATCC 25922, 18 hours at 35° C.): >64 µg/mL | MIC Escherichia coli (GC 4559) ([3]; strain GC 4559, 18 hours at 35° C.): >64 µg/mL | MIC Escherichia coli (GC 4560) ([3]; strain GC 4560, 18 hours at 35° C.): 2 µg/mL (≈ 1.35 µM) | MIC Streptococcus pneumoniae (ATCC 6301) ([4]; inoculum 5×10^5 CFU/mL): <0.06 µg/mL | MIC Streptococcus pneumoniae (GC 1894) ([4]; inoculum 5×10^5 CFU/mL): <0.06 µg/mL | MIC Streptococcus pyogenes (GC 4563) ([4]; inoculum 5×10^5 CFU/mL): 0.12 µg/mL (≈ 0.0808 µM) | MIC Streptococcus agalactiae (GC 4564) ([4]; inoculum 5×10^5 CFU/mL): <0.06 µg/mL | MIC Streptococcus pneumoniae (GC 4565) ([4]; inoculum 5×10^5 CFU/mL): <0.06 µg/mL | MIC Streptococcus pneumoniae (ATCC 6301) [4]: <0.06 µg/mL | MIC Streptococcus pneumoniae (GC 1894) [4]: <0.06 µg/mL | MIC Streptococcus pyogenes (GC 4563) [4]: 0.12 µg/mL (≈ 0.0808 µM) | MIC Streptococcus agalactiae (GC 4564) [4]: <0.06 µg/mL | MIC Streptococcus pneumoniae (GC 4565) [4]: <0.06 µg/mL
